According to patent US20030187007A1, “Inhibitors of protein kinase for the treatment of disease” (priority 2001, published 2003):

What was measured:
Type in all cases: cell-based
HT29 = assay: In vitro tumor cell efficacy test (SRB), Colon Cancer; conditions: Homo sapiens, HT-29, 72 hours
M14 = assay: In vitro tumor cell efficacy test (SRB), Melonoma; conditions: Homo sapiens, 72 hours
SK-OV-3 = assay: In vitro tumor cell efficacy test (SRB), Ovarian Cancer; conditions: Homo sapiens, SK-OV-3, Ovarian Cancer, 72 hours
SK-MEL-28 = assay: In vitro tumor cell efficacy test (SRB), Melonoma; conditions: Homo sapiens, SK-MEL-28, Melonoma, 72 hours
A549/ATCC = conditions: Homo sapiens, Non-Small Cell Lung Cancer, 72 hours
SNB-19 = assay: In vitro tumor cell efficacy test (SRB), CNS Cancer; conditions: Homo sapiens, SNB-19, CNS Cancer, 72 hours
IGROV1 = assay: In vitro tumor cell efficacy test (SRB), Ovarian Cancer; conditions: Homo sapiens, IGROV-1, 72 hours
NCI-H460 = conditions: Homo sapiens, NCI-H460, Non-Small Cell Lung Cancer, 72 hours
A498 = assay: In vitro tumor cell efficacy test (SRB), Renal Cancer; conditions: Homo sapiens, 72 hours
OVCAR-4 = assay: In vitro tumor cell efficacy test (SRB), Ovarian Cancer; conditions: Homo sapiens, OVCAR-4, Ovarian Cancer, 72 hours
PC-3 = assay: In vitro tumor cell efficacy test (SRB), Prostate Cancer; conditions: Homo sapiens, PC-3, Prostate Cancer, 72 hours
MOLT-4 = assay: In vitro tumor cell efficacy test (SRB), Leukemia; conditions: Homo sapiens, MOLT-4, Leukemia, 72 hours
SF-539 = assay: In vitro tumor cell efficacy test (SRB), CNS Cancer; conditions: Homo sapiens; SF-539, CNS Cancer, 72 hours
MDA-MB-435 = assay: In vitro tumor cell efficacy test (SRB), Breast Cancer; conditions: Homo sapiens, MDA-MB-435, Breast Cancer, 72 hours
786-0 = assay: In vitro tumor cell efficacy test (SRB), Renal Cancer; conditions: Homo sapiens, 786-0, Renal Cancer, 72 hours
MDA-MB-231/ATCC = assay: In vitro tumor cell efficacy test (SRB), Breast Cancer; conditions: Homo sapiens, 72 hours
MCF7 = assay: as above; conditions: Homo sapiens, 72 hours
DU-145 = assay: In vitro tumor cell efficacy test (SRB), Prostate Cancer; conditions: Homo sapiens; DU-145, Prostate Cancer, 72 hours
UO-31 = assay: In vitro tumor cell efficacy test (SRB), Renal Cancer; conditions: Homo sapiens, UO-31, Renal Cancer, 72 hours
BT-549 = assay: In vitro tumor cell efficacy test (SRB), Breast Cancer; conditions: Homo sapiens; BT-549, Breast Cancer, 72 hours
HCC-2998 = assay: In vitro tumor cell efficacy test (SRB), Colon Cancer; conditions: Homo sapiens, HCC-2998, Colon Cancer, 72 hours
U251 = assay: In vitro tumor cell efficacy test (SRB), CNS Cancer; conditions: Homo sapiens, U-251, 72 hours
HCT-15 = assay: In vitro tumor cell efficacy test (SRB), Colon Cancer; conditions: Homo sapiens; HCT-15, Colon Cancer, 72 hours
NCI/ADR-RES = assay: In vitro tumor cell efficacy test (SRB), Breast Cancer; conditions: Homo sapiens, 72 hours
HS 578T = assay: as above; conditions: Homo sapiens, 72 hours
CCRF-CEM = assay: In vitro tumor cell efficacy test (SRB), Leukemia; conditions: Homo sapiens, 72 hours
K-562 = assay: In vitro tumor cell efficacy test (SRB), Leukemia; conditions: Homo sapiens, K562, K-562, Leukemia, 72 hours
SR = assay: In vitro tumor cell efficacy test (SRB), Leukemia; conditions: Homo sapiens, 72 hours
CAKI-1 = assay: In vitro tumor cell efficacy test (SRB), Renal Cancer; conditions: Homo sapiens, CAKI-1, Renal Cancer, 72 hours
NCI-H23 = conditions: Homo sapiens, NCI-H23, Non-Small Cell Lung Cancer, 72 hours
RXF 393 = assay: In vitro tumor cell efficacy test (SRB), Renal Cancer; conditions: Homo sapiens, RXF 393, Renal Cancer, 72 hours
HL-60(TB) = assay: In vitro tumor cell efficacy test (SRB), Leukemia; conditions: Homo sapiens, 72 hours
HOP-62 = conditions: Homo sapiens, HOP-62, Non-Small Cell Lung Cancer, 72 hours
EKVX = conditions: Homo sapiens, Non-Small Cell Lung Cancer, 72 hours
[1] = read-out: Log (LC50) (the source's name) (converted)

Nc1nccc(-c2cc(-c3ccc(O)cc3)ccc2O)n1 [3-(2-Amino-pyrimidin-4-yl)-biphenyl-4,4′-diol]
7940 nM: CC50 (HOP-62; [1])
1260 nM: GI50 (HCC-2998)
251 nM: GI50 (SK-MEL-28) | GI50 (IGROV1) | GI50 (NCI-H460) | GI50 (PC-3) | GI50 (MOLT-4) | GI50 (MDA-MB-435) | GI50 (786-0) | GI50 (MDA-MB-231/ATCC) | GI50 (MCF7) | GI50 (UO-31) | GI50 (BT-549) | GI50 (NCI-H23) | GI50 (EKVX)
79400 nM: CC50 (CCRF-CEM; [1]) | CC50 (HL-60(TB); [1])
10 nM: GI50 (SR)
6310 nM: CC50 (RXF 393; [1])
> 100000 nM: CC50 (HT29; [1]) | CC50 (M14; [1]) | CC50 (SK-OV-3; [1]) | CC50 (SK-MEL-28; [1]) | CC50 (IGROV1; [1]) | CC50 (NCI-H460; [1]) | CC50 (A498; [1]) | CC50 (OVCAR-4; [1]) | CC50 (PC-3; [1]) | CC50 (MOLT-4; [1]) | LC50 (SF-539) | CC50 (MDA-MB-435; [1]) | CC50 (786-0; [1]) | CC50 (MDA-MB-231/ATCC; [1]) | LC50 (MCF7) | LC50 (DU-145) | CC50 (UO-31; [1]) | LC50 (BT-549) | CC50 (HCC-2998; [1]) | CC50 (U251; [1]) | LC50 (HCT-15) | CC50 (NCI/ADR-RES; [1]) | CC50 (HS 578T; [1]) | CC50 (K-562; [1]) | CC50 (SR; [1]) | CC50 (CAKI-1; [1]) | CC50 (NCI-H23; [1]) | CC50 (EKVX; [1])
398 nM: GI50 (M14) | GI50 (HS 578T) | GI50 (K-562) | GI50 (CAKI-1)
1000 nM: GI50 (RXF 393)
1580 nM: GI50 (A498)
316 nM: GI50 (A549/ATCC) | GI50 (OVCAR-4) | GI50 (NCI/ADR-RES)
501 nM: GI50 (SK-OV-3)
20000 nM: CC50 (SNB-19; [1])
79.4 nM: GI50 (HOP-62)
126 nM: GI50 (HCT-15) | GI50 (HL-60(TB))
3160 nM: GI50 (HT29)
200 nM: GI50 (SNB-19) | GI50 (SF-539) | GI50 (U251) | GI50 (CCRF-CEM)
794 nM: GI50 (DU-145)
